A value given as a limit tells only on which side of the number the result lay.

For this assay, the target named is T1, human glucose transporter-1 (hGLUT-1) (Homo sapiens, UniProt P11166).
T1 sequence (P11166 1-492): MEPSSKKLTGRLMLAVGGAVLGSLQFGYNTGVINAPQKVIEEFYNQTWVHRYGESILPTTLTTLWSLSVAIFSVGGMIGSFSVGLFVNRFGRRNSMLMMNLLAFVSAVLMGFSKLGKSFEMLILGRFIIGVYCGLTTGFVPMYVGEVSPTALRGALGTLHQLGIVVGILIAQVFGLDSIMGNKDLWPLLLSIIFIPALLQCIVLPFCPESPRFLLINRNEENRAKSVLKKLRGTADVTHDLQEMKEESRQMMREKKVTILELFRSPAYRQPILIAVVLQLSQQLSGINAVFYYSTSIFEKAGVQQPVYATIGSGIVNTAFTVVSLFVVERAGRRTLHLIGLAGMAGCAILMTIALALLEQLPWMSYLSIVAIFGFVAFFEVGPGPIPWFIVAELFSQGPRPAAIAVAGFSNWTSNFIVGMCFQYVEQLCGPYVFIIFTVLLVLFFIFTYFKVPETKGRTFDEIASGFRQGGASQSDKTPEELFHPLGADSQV
Briefly: inhibition of [3H]2-DG. The conditions noted are these: FaDu, read-out: % inhibition at 25 μM. In kind it is cell-based.
For `O=c1c(-c2ccc(O)cc2)coc2cc(O)cc(O)c12` [genistein], the inhibition at 25 µM is > 50%.

Take `CC(C)c1cc(-c2n[nH]c(=O)n2-c2ccc3c(ccn3C)c2)c(O)cc1O` [Ganetespib]: the inhibition at 25 µM was > 50%.

Consider `C#Cc1cccc(Nc2ncnc3cc(OC)c(OCCCCCCC(=O)NO)cc23)c1` [CUDC-101], for which the inhibition at 25 µM lay in the range of 80 to 90%.

The values are drawn from publication PMC8212708 (Clinical and Translational Science, 2021).
